According to patent US20220274947A1, “NOVEL HETEROARYL-TRIAZOLE COMPOUNDS AS PESTICIDES” (Bayer Aktiengesellschaft, priority 2019, published 2022):

How the values were obtained:
Type in all cases: in vivo
Rhipicephalus microplus = experiment: Rhipicephalus (Boophilus) microplus dip test (BOOPMI Dip); conditions: 168 h, application rate 100 ppm, engorged adult female ticks, after 7 days, read-out: activity (efficacy: 100% means all eggs are infertile)
Protocol: Rhipicephalus (Boophilus) Microplus—Dip Test (BOOPMI Dip)
Test Animal: cattle ticks (Rhipicephalus microplus) strain parkhurst, SP-resistant Solvent: dimethyl sulfoxide
To produce a suitable preparation of active compound, 10 mg of active compound are dissolved in 0.5 mL solvent, and the concentrate is diluted with water to the desired concentration.
This compound solution is pipetted into tubes. 8-10 engorged, adult, female cattle ticks (Rhipicephalus microplus) are placed in perforated tubes. These tubes are immersed in the aqueous compound solution until the ticks are completely moistened. After the liquid has drained off, the ticks are transferred to a filter paper in a plastic tray and stored in a climate chamber.
After 7 days egg deposition of fertile eggs is monitored. Eggs where fertility is not visible are stored in a climate chamber till hatching after about 42 days. An efficacy of 100% means all eggs are infertile; 0% means all eggs are fertile.

Rhipicephalus sanguineus = Rhipicephalus sanguineus in-vitro contact test, adult brown dog ticks (RHIPSA Cont); conditions: 48 h, after 48 hours, read-out: activity (efficacy: 100% means all ticks are dead or moribund); for pest or weed control at 1 µg/cm2, 100 g/ha: application rate 1 μg/cm^2 (=100 g/ha); for pest or weed control at 5 µg/cm2, 500 g/ha: application rate 5 μg/cm^2 (=500 g/ha)
Outline: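 Compound in acetone was coated onto the inner walls of glass tubes and dried by rotation before adult brown dog ticks were exposed. Efficacy was scored at 48 h. Ticks unable to climb away from a 45–50 °C heating plate within 5 min counted as dead or moribund.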

Myzus persicae = Myzus persicae oral test; conditions: 120 h, read-out: activity (mortality)
Outline: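 Percent mortality was recorded at day 5, where 0% means no aphids killed. Compound prepared from an acetone concentrate diluted in water and combined with IPL41 medium containing sugar was offered to mixed-stage green peach aphids, which sucked it through a parafilm seal.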

[1] = system: Aedes aegypti strain MONHEIM; experiment: Aedes aegypti test (AEDSAE surface treatment & contact assay); conditions: exposure 30 minutes, 24 hours after contact, read-out: efficacy (mortality); for mortality at 4 mg/m2: surface concentration 4 mg/m^2, glazed tile; for mortality at 20 mg/m2: surface concentration 20 mg/m^2, glazed tile
Outline: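 Compound dissolved in acetone (2 mg/ml) with 2000 ppm rapeseed oil methyl ester, pipetted onto glazed tile and dried. Adult mosquitoes exposed on the surface for 30 min; percent mortality scored 24 h after contact.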

[2] = system: Musca domestica strain WHO—N; experiment: Musca domestica test (MUSCDO surface treatment & contact assay); conditions: exposure 30 minutes, 24 hours after contact, read-out: efficacy (mortality); for mortality at 20 mg/m2: surface concentration 20 mg/m^2, glazed tile; for mortality at 4 mg/m2: surface concentration 4 mg/m^2, glazed tile
Outline: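 Compound dissolved in acetone (2 mg/ml) with 2000 ppm rapeseed oil methyl ester and pipetted onto glazed tile; after acetone evaporation, adult flies exposed to dried surface for 30 minutes. Mortality (%) scored 24 hours after contact.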

Nezara viridula = Nezara viridula spray test; conditions: in Hordeum vulgare, 96 h, barley plants, larvae, after 4 days; for mortality at 100 g/ha: application rate 100 g/ha; for mortality at 500 g/ha: application rate 500 g/ha
Outline: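 Barley plants infested with N. viridula larvae were sprayed with compound in acetone/DMF diluted with water containing 1000 ppm alkylarylpolyglycol ether emulsifier. Mortality (%) was scored after 4 days; 100% means all bugs killed, 0% none.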

[3] = system: Culex quinquefasciatus strain P00; experiment: Culex quinquefasciatus test (CULXFA surface treatment & contact assay); conditions: exposure 30 minutes, 24 hours after contact, read-out: efficacy (mortality); for mortality at 4 mg/m2: surface concentration 4 mg/m^2, glazed tile; for mortality at 20 mg/m2: surface concentration 20 mg/m^2, glazed tile
Outline: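 Test compound in acetone (2 mg/ml) with 2000 ppm RME pipetted onto glazed tile; after acetone evaporation, adult strain P00 mosquitoes exposed to dried surface for 30 min. Mortality (%) scored 24 h after contact; 100% = all dead, 0% = none dead.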

[4] = system: Anopheles funestus strain FUMOZ-R; experiment: Anopheles funestus test (ANPHFU surface treatment & contact assay); conditions: exposure 30 minutes, 24 hours after contact, read-out: efficacy (mortality); for mortality at 4 mg/m2: surface concentration 4 mg/m^2, glazed tile; for mortality at 20 mg/m2: surface concentration 20 mg/m^2, glazed tile
Outline: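 Adult FUMOZ-R mosquitoes were exposed 30 min to glazed tiles treated with compound in acetone plus 2000 ppm rapeseed oil methyl ester, after solvent evaporation. Percent mortality was scored 24 h after contact.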

SMILES | pest or weed control at 100 ppm (Rhipicephalus microplus) [%] | pest or weed control at 1 µg/cm2, 100 g/ha (Rhipicephalus sanguineus) [%] | pest or weed control at 5 µg/cm2, 500 g/ha (Rhipicephalus sanguineus) [%] | mortality at 4 ppm (Myzus persicae) [%] | mortality at 4 mg/m2 [1] [%] | mortality at 20 mg/m2 [1] [%] | mortality at 20 mg/m2 [2] [%] | mortality at 100 g/ha (Nezara viridula) [%] | mortality at 500 g/ha (Nezara viridula) [%] | mortality at 4 mg/m2 [3] [%] | mortality at 20 mg/m2 [3] [%] | mortality at 4 mg/m2 [4] [%] | mortality at 20 mg/m2 [4] [%] | mortality at 4 mg/m2 [2] [%]
CCc1nc([C@H](C)NC(=O)c2cc(C(F)(F)F)cc(C(F)(F)F)c2)n(-c2ccc(C#N)cn2)n1 [I-1] | 100 | 80 | 100 | 100 | 80 to 100 | 80 to 100 | 80 to 100 |  |  |  |  |  |  | 
C[C@H](NC(=O)c1ccnc(C(F)(F)F)n1)c1ncnn1-c1ccc(C#N)cn1 [II-8] |  | 100 | 100 |  | 80 to 100 | 80 to 100 | 80 to 100 | 100 | 100 | 80 to 100 | 80 to 100 | 80 to 100 | 80 to 100 | 80 to 100
C[C@H](NC(=O)c1cccc(Cl)n1)c1ncnn1-c1ccc(C#N)cn1 [II-9] |  |  | 80 |  |  |  | 80 to 100 |  | 100 |  | 80 to 100 | 80 to 100 | 80 to 100 | 
C[C@H](NC(=O)c1cc(Cl)cc(C(F)F)c1)c1ncnn1-c1ccc(C#N)cn1 [II-12] |  | 100 | 100 | 100 | 80 to 100 |  | 80 to 100 | 100 | 100 | 80 to 100 | 80 to 100 | 80 to 100 | 80 to 100 | 80 to 100
C[C@H](NC(=O)c1cc(Cl)cc(OC(F)(F)F)c1)c1ncnn1-c1ncc(Cl)s1 [II-16] |  | 100 | 100 |  |  | 80 to 100 | 80 to 100 | 90 | 100 |  | 80 to 100 |  | 80 to 100 | 
Cc1nc([C@H](C)NC(=O)c2cc(Cl)cc(Cl)c2)n(-c2cc(C#N)ccn2)n1 [II-17] |  | 80 | 100 |  | 80 to 100 | 80 to 100 | 80 to 100 |  |  |  | 80 to 100 | 80 to 100 | 80 to 100 | 80 to 100
CC(=O)Nc1ccnc(-n2ncnc2[C@H](C)NC(=O)c2cc(Cl)cc(OC(F)(F)F)c2)c1 [II-22] |  |  |  |  | 80 to 100 | 80 to 100 | 80 to 100 |  |  | 80 to 100 | 80 to 100 | 80 to 100 | 80 to 100 | 80 to 100
CCN(C)C(=O)c1ccc(-n2ncnc2[C@H](C)NC(=O)c2cc(Cl)cc(C(F)(F)F)c2)nc1 [II-27] |  | 100 | 100 | 100 | 80 to 100 | 80 to 100 |  |  | 100 |  | 80 to 100 |  | 80 to 100 | 
C[C@H](NC(=O)c1cc(Cl)cc(C(F)(F)F)c1)c1ncnn1-c1cc(N)ccn1 [II-28] |  | 100 | 100 | 90 |  | 80 to 100 | 80 to 100 |  | 90 | 80 to 100 | 80 to 100 |  |  | 
